What was measured:
CYP2A6 = target: T1, CYP2A6 (Homo sapiens, UniProt P11509); test: Kinetic analysis, coumarin 7-hydroxylase activity in Hepc/2A6L.9; format: cell-based
T1 construct: expressed in transfected cells
T1 sequence (P11509 1-494): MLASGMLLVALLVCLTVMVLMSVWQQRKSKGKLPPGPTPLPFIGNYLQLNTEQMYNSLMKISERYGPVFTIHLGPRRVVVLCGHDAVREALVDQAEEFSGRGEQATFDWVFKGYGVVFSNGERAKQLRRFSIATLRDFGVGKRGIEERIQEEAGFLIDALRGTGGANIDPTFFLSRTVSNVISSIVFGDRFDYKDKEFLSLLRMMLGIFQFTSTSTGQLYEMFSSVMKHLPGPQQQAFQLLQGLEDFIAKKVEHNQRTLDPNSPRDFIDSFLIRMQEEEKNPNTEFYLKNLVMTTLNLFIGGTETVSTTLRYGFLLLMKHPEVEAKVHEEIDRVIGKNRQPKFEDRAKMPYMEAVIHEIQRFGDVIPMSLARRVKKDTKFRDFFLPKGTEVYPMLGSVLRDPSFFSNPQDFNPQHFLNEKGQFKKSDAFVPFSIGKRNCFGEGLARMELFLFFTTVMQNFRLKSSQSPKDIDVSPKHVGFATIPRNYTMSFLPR
Source text: The product purchased from Extrasynthese was used as the standard substance for 7-hydroxycoumarin.

HepG2 [1] = test: MTT assay, cytotoxicity of acetaminophen in HepG2; format: cell-based, human; settings: HepG2, without BSO, 4 days incubation (FIG. 1)
Experimental: (§1) HepG2 or CYP2E1-expressing cells (Hepc/2E1.3-8) (4×10^5 cells/ml) were incubated with acetaminophen (Wako Junyaku K. K. ) diluted to a given concentration in DMEM medium supplemented with 5% FCS in a CO2 incubator. In the test to terminate glutathione conjugation, L-Buthionine [S,R]-Sulfoximine (BSO, Sigma) was added to the medium in a final concentration of 100 μM. After incubation for 4 days, 20 μl of a solution of 3-(4,5-dimethyl-2-thiazolyl)-2,5-diphenyl-2H-tetrazolium bromide (MTT, Sigma) adjusted to 1 mg/ml with PBS (Flow) was added to each well followed by incubation at 37° C. for 3 hours. Next, 100 μl of 0.01N HCl solution containing 10% SDS was added to each well. After incubation at 37° C. overnight, absorbance was measured at 590 nm.

[2] = system: CYP2E1-expressing cells (Hepc/2E1.3-8); test: MTT assay, cytotoxicity of acetaminophen in CYP2E1-expressing cells; format: cell-based, human; settings: 4 days incubation (FIG. 1)
Experimental: as §1

HepG2 [3] = test: LDH leakage test, acetaminophen in HepG2; format: cell-based, human
Experimental: (§2) Two plates each with the same design as in the MTT assay were prepared (for determination of LDH activity in the culture supernatant and for determination of LDH activity in the culture supernatant+LDH activity in the cells). After incubating for 3 days in a CO2 incubator, 10 μl of the supernatant was taken from each well of one plate (for determination of LDH activity in the supernatant), transferred to another 96-well plate, and 40 μl of distilled water was further added. On the other hand, 10 μl of 10% Triton X100 (Wako Junyaku K. K. ) was added to each well of another plate (for determination of LDH activity in the culture supernatant+LDH activity in the cells), followed by shaking and incubation at 37° C. for 45 minutes. After centrifuging at 1500 rpm for 5 minutes, 10 μl of the supernatant was taken from each well, transferred to another 96-well plate, and 40 μl of distilled water was further added. The LDH activity of each well in these plates was measured using Cytotox 96 Non-Radioactive Cytotoxicity Assay Kit (Promega). Multiscanning MS-UV was used for the measurement of absorbance. A ratio of the LDH activity in the supernatant to (the LDH activity in the supernatant+ the LDH activity in the cells) was made an LDH leakage rate.

[4] = system: CYP2E1-expressing cells (Hepc/2E1.3-8); test: LDH leakage test, acetaminophen in CYP2E1-expressing cells; format: cell-based, human
Experimental: as §2

[5] = system: CYP1A1-expressing cells (Hepc/1A1.4); test: MTT assay, cytotoxicity of benzanthracene in CYP1A1-expressing cells; format: cell-based, human; settings: Hepc/1A1.4 compared with HepG2, 4 days incubation, concentration-dependent (FIG. 3)
Experimental: CYP1A1-expressing cells (Hepc/1A1.4) (4×10^5 cells/ml) were incubated with benzanthracene (Sigma) diluted to a given concentration in DMEM medium supplemented with 5% FCS in a CO2 incubator. After incubation for 4 days, 20 μl of a MTT (Sigma) solution adjusted to 1 mg/ml with PBS (Flow) was added to each well followed by incubation at 37° C. for 3 hours. Next, 100 μl of 0.01N HCl solution containing 10% SDS was added to each well. After incubation at 37° C. overnight, absorbance was measured at 590 nm.

[6] = system: CYP2B6-expressing cells (Hepc/2B6.68); settings: Hepc/2B6.68, 4 days incubation (printed FIG. 5)
Experimental: (§3) After incubation for 4 days, 20 μl of a MTT (Sigma) solution adjusted to 1 mg/ml with PBS (Flow) was added to each well followed by incubation at 37° C. for 3 hours. Next, 100 μl of 0.01N HCl solution containing 10% SDS was added to each well. After incubation at 37° C. overnight, absorbance was measured at 590 nm.

[7] = system: CYP2B6-expressing cells (Hepc/2B6.68); settings: Hepc/2B6.68, 4 days incubation; plateau above 2 mM
Experimental: Two plates each with the same design as in the MTT assay were prepared (for determination of LDH activity in the culture supernatant and for determination of LDH activity in the culture supernatant+LDH activity in the cells). After incubating for 4 days in a CO2 incubator, 10 μl of the supernatant was taken from each well of one plate (for determination of LDH activity in the supernatant), transferred to another 96-well plate, and 40 μl of distilled water was further added. On the other hand, 10 μl of 10% Triton X100 was added to each well of another plate (for determination of LDH activity in the culture supernatant+LDH activity in the cells), followed by shaking and incubation at 37° C. for 45 minutes. After centrifuging at 1500 rpm for 5 minutes, 10 μl of the supernatant was taken from each well, transferred to another 96-well plate, and 40 μl of distilled water was further added. The LDH activity of each well in these plates was measured using Cytotox 96 Non-Radioactive Cytotoxicity Assay Kit (Promega). Multiscanning MS-UV was used for the measurement of absorbance. A ratio of the LDH activity in the supernatant to (the LDH activity in the supernatant + the LDH activity in the cells) was made an LDH leakage rate.

HepG2 [8] = settings: HepG2, 4 days incubation (printed FIG. 4)
Experimental: as §3
Two plates each with the same design as in the MTT assay were prepared (for determination of LDH activity in the culture supernatant and for determination of LDH activity in the culture supernatant+LDH activity in the cells). After incubating for 4 days in a CO2 incubator, 10 μl of the supernatant was taken from each well of one plate (for determination of LDH activity in the supernatant), transferred to another 96-well plate, and 40 μl of distilled water was further added. On the other hand, 10 μl of 10% Triton X100 was added to each well of another plate (for determination of LDH activity in the culture supernatant+LDH activity in the cells), followed by shaking and incubation at 37° C. for 45 minutes. After centrifuging at 1500 rpm for 5 minutes, 10 μl of the supernatant was taken from each well, transferred to another 96-well plate, and 40 μl of distilled water was further added. The LDH activity of each well in these plates was measured using Cytotox 96 Non-Radioactive Cytotoxicity Assay Kit (Promega). Multiscanning MS-UV was used for the measurement of absorbance. […]

CYP2E1 = CYP2E1 (Homo sapiens, UniProt P05181); settings: Hepc/2E1.3-8 cells incubated 3 days with the substance; 500 μM p-nitrophenol (FIG. 7)
Experimental: The medium was suctioned and the cells attached to the plate were washed with Phenol Red-free DMEM medium. Subsequently, p-nitrophenol previously diluted to 500 μM was added in 500 μl/well. After reacting at 37° C., the reaction solution was recovered from each well. To 100 μl of the reaction solution 50 μl of NaOH (Wako Junyaku K. K. ) was added, and insoluble matters were removed by centrifugation. By measuring absorbance at 540 nm-620 nm with multi-scanning MS-UV (Labo Systems), 4-nitrocatechol formed was quantified.

CYP3A4 = CYP3A4 (Homo sapiens, UniProt P08684); test: Kinetic analysis, testosterone 6β-hydroxylase activity in Hepc/3A4.5
Experimental: Subsequently, testosterone previously diluted to 100 μM was added in 500 μl/well.
A program was made up to set for a linear gradient of 0-100% solution B in 0-20 minutes, 100% solution B in 20-30 minutes and since then 100% solution.

CYP2B6 = target: T2, CYP2B6 (Homo sapiens, UniProt P20813); test: Kinetic analysis, 7-ethoxycoumarin O-deethylase activity in Hepc/2B6.68; format: cell-based
T2 construct: expressed in transfected cells
T2 sequence (P20813 1-491): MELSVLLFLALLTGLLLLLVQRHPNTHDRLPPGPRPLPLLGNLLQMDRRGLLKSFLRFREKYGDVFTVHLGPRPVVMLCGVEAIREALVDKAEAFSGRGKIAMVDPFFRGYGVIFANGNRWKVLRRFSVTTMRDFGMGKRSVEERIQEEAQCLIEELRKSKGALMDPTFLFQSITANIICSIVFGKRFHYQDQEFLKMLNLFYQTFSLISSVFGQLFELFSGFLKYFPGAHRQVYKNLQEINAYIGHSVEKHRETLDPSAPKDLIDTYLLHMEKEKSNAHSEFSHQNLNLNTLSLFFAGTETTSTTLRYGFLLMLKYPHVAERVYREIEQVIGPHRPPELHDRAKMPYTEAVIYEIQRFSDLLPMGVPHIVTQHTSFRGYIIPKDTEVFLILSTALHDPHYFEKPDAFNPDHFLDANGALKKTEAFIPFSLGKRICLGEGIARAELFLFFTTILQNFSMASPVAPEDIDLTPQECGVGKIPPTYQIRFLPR
Experimental: The reaction solution was diluted to 10-fold with 0.1M Tris-HCl (pH 7.4) and fluorescent intensity was measured at an excited wavelength of 390 nm and a fluorescence wavelength of 440 nm, using a spectrofluorometer (Hitatchi Spectrofluorometer F-2000) to quantify 7-hydroxycoumarin formed. The product purchased from Extrasynthese was used as the standard substance for 7-hydroxycoumarin.

Chain of CYP3A4 (P08684 whole entry): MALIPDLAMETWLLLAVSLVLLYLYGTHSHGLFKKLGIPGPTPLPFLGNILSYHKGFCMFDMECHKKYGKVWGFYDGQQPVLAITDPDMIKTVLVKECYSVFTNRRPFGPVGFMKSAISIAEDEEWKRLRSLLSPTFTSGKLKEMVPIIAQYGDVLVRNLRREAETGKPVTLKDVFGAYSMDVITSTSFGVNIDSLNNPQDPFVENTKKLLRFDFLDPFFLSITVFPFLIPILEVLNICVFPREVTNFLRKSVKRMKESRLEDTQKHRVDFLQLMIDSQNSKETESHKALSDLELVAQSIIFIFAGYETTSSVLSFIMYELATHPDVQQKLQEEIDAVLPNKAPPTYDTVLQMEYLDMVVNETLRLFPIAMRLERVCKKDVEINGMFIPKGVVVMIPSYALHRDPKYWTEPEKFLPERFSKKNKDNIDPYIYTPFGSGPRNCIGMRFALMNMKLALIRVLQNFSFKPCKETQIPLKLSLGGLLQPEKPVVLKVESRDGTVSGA
Chain of CYP2E1 (P05181 whole entry): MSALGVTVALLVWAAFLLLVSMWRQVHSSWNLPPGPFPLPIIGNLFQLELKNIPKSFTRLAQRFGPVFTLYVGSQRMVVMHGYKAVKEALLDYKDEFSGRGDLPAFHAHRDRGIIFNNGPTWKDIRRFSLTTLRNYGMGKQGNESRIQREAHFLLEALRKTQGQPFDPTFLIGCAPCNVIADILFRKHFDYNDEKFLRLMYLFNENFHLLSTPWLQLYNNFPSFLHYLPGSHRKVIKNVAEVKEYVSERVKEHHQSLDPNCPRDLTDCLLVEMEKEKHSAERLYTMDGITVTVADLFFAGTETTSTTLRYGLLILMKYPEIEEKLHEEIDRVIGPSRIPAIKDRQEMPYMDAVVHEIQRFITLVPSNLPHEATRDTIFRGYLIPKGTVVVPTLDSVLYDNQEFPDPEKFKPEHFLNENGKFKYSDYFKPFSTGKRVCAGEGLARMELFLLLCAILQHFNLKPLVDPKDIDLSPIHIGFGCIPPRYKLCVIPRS

## O=c1ccc2ccccc2o1 [Coumarin]
CYP2A6; Lineweaver-Burk plot
  Vmax: 412 pmol/min/mg
CYP2A6; human, Hepc/2A6L.9 cells expressing CYP2A6, Lineweaver-Burk plot
  Km: 11.1 µM

## CC(=O)Nc1ccc(O)cc1 [Acetaminophen, acetaminophen]
HepG2 [1]
  MTT activity: slight decrease of the MTT activity
[2]; Hepc/2E1.3-8 + 100 μM BSO
  MTT activity in the presence of BSO: increased sensitivity to acetaminophen
[2]; Hepc/2E1.3-8, without BSO
  MTT activity: slight decrease of the MTT activity
HepG2 [3]; HepG2 + 100 μM BSO (FIG. 2)
  effect of the presence of BSO on LDH leakage: Any effect expected in the presence of BSO was not noted
HepG2 [3]; HepG2, without BSO, 3 days incubation (FIG. 2)
  leakage of LDH: slight leakage of LDH
[4]; Hepc/2E1.3-8 + 100 μM BSO (glutathione exhausted), versus without BSO
  enhancement of sensitivity to acetaminophen in the presence of BSO (LDH leakage): approximately 4 times
[4]; Hepc/2E1.3-8, without BSO, 3 days incubation (FIG. 2)
  leakage of LDH: slight leakage of LDH

## c1ccc2cc3c(ccc4ccccc43)cc2c1 [benzanthracene]
[5]
  reduction in the MTT activity: more potent reduction in the MTT activity

## O=P1(N(CCCl)CCCl)NCCCO1 (stereo not shown) [Cyclophosphamide, cyclophosphamide]
[6]
  MTT activity: slight decrease of the MTT activity concentration-dependently
[7]
  leakage of LDH: concentration-dependently in the concentration up to 2 mM
HepG2 [8]
  cytotoxicity: slightly cytotoxic

## CCO [ethanol]
CYP2E1
  CYP2E1 activity induction (p-nitrophenol hydroxylation, 4-nitrocatechol formed): the enzyme activity increases

## C[C@]12CC[C@H]3[C@@H](CCC4=CC(=O)CC[C@@]43C)[C@@H]1CC[C@@H]2O [Testosterone]
CYP3A4; Hepc/3A4.5, testosterone 6β-hydroxylase activity, Lineweaver-Burk plot
  Vmax: 71 pmol/min/mg
CYP3A4; human, Hepc/3A4.5 cells expressing CYP3A4
  Km: 96 µM

## CCOc1ccc2ccc(=O)oc2c1 [7-ethoxycoumarin]
CYP2B6; Lineweaver-Burk plot
  Vmax: 80 pmol/min/mg
CYP2B6; human, Hepc/2B6.68 cells expressing CYP2B6, Lineweaver-Burk plot
  Km: 81 µM

## C[S+](C)[O-] [DMSO, dimethylsulfoxide]
CYP2E1
  CYP2E1 activity induction (p-nitrophenol hydroxylation, 4-nitrocatechol formed): the enzyme activity increases

— US6756229B1, “Human cell line showing stable expression of cytochromes P450” (Takeda Chemical Industries, Ltd., priority 1999, dated 2004)
